Consider 14 compounds from paper PMC11865978, “Cellular Activity of CQWW Nullomer-Derived Peptides” (ACS Omega, 2025).

Non-standard residues stand in square brackets, D forms with d. Residues, ends and D or L forms follow the SMILES beside them. No end group written: not given here.

The test system of one test is GCGR-E34. Format: cell-based, human. The note with it: 72 h. Here is the method: (§1) Peptides were tested in an automated image-based high-content[42] cell painting[43],[44] assay that was originally developed to explore the mechanism of action of pharmacological and genetic perturbations within cells,[45] as well as a live cell imaging assay against six patient-derived glioblastoma cell lines (GCGR-E13, GCGR-E28, GCGR-E21, GCGR-E57, GCGR-E31, and GCGR-E34), covering classical, mesenchymal, and proneural subtypes, respectively (see Methods and Figure 1B–D), along with a healthy human fetal neuronal stem cell line (GCGR-NS9FB_B).
(§2) Cell survival was quantified by nuclei counts from the Hoechst dye-stained nuclei and IC50 values calculated along with 95% confidence intervals (Figure 1B; see Table S2 for full details). […]
(§3) High Content Phenotypic Screening assays
(§4) Cell lines (glioma stem cell lines and normal foetal neural stem cells) were seeded on laminin (10 µg/mL) coated 384-well plates (Greiner Bio-One, 781091) at 1,000 cells/well and incubated overnight at 37 °C and 5% CO2. Aqueous peptide solutions (10 mM) were further diluted to 1 mM in water containing 10 % glycerol and 0.01 % TX-100. […]
(§5) The cells were placed in an IncuCyte live cell imager (Essen BioScience) and imaged every three hours for 72 hours. Prior to fixation, the plates were removed from the IncuCyte and stained with Mitrotracker DeepRed (Invitrogen, M22426, 300 nM, 30 minutes). Cells were then fixed using 4 % formaldehyde and permeabilized with 0.1 % TX-100 in PBS. The cells were stained with ‘Cell Painting’ […]
(§6) assay reagents1: Hoechst 33342 (10 mg/mL stock, Molecular Probes, 1:5000), SYTO14 […]
(§7) BSA/PBS. The plates were imaged using an ImageXpress high content microscope (Molecular Devices). Cells were imaged with a 20× objective, covering 6 fields-of-view in each well. The data was then analyzed using a custom CellProfiler software pipeline using the University of Edinburgh high performance computing cluster. Dose response plots were calculated using HC StratomineR (corelifeanalytics.com). Nuclei count data was analyzed separately to generate cell survival metrics (normalized to aqueous glycerol/TX -100 control). […]

In the next test the test system is GCGR-E13. Format: cell-based, human. The conditions noted are these: 72 h. Here is the method: as §1, §2, §3, §4, §5, §6, §7
The test system of another test is GCGR-E21. Type of test: cell-based, human. The conditions noted are these: 72 h. Here is the method: as §1, §2, §3, §4, §5, §6, §7
A further test concerns GCGR-NS9FB_B. Format: cell-based, human. The note with it: 72 h. Here is the method:
as §1, §2, §3
(§8) Cell lines (glioma stem cell lines and normal foetal neural stem cells) were seeded on laminin (10 µg/mL) coated 384-well plates (Greiner Bio-One, 781091) at 1,000 cells/well and incubated overnight at 37 °C and 5% CO2. Aqueous peptide solutions (10 mM) were further diluted to 1 mM in water containing 10 % glycerol and 0.01 % TX-100. Cells were dosed using a D300 digital dispenser (Tecan) by 10-point dose response (30 µM – 1 µM) in triplicate and with aqueous glycerol/TX-100 as control. The cells were placed in an IncuCyte live cell imager (Essen BioScience) and imaged every three hours for 72 hours. Prior to fixation, the plates were removed from the IncuCyte and stained with Mitrotracker DeepRed (Invitrogen, M22426, 300 nM, 30 minutes). Cells were then fixed using 4 % formaldehyde and permeabilized with 0.1 % TX-100 in PBS. The cells were stained with ‘Cell Painting’ […]
as §6, §7

The next test concerns GCGR-E57. Type of test: cell-based, human. The note with it: 72 h. Here is the method: as §1, §2, §3, §8, §6, §7
In a further test the test system is GCGR-E31. Type of test: cell-based, human. The note with it: 72 h. Here is the method:
as §1, §2, §3, §8, §6, §7

In another test the test system is GCGR-E28. Format: cell-based, human. The note with it: 72 h. Here is the method: as §1, §2, §3, §8, §6, §7
For another test, the system named is GSK-3. The test can be described thus: Reverse phase protein array (RPPA). Format: cell-based, human. The conditions noted are these: peptides at 3 μM, 3 h and 24 h (peptide 7: 24 h only), seven cell lines; fold difference vs water control. An excerpt: The phenotypic effect of the peptides was visualized by live cell imaging (Figure 1C, IncuCyte live cell imager) and also quantified via image analysis of cells labeled with the cell painting reagents (see Supporting Information) followed by image analysis using Cell Profiler (cellprofiler.org). Multiparametric outputs from Cell Profiler were processed using Phenonaut[46] [v 2.0.3] (see Jupyter notebook ‘Phenonaut_processing_of_nullomer_data.ipynb’ in the Aminonaut repository for methods and code used). […] Peptides 2, 5, and 7 were deemed to have the most merit for mode of action determination using reverse phase protein arrays (RPPAs) (see Supporting Information for methods). […]
growth and stemness was further supported by the addition of laminin extracellular matrix (Cultrex 3446-005-01, 4-10 mg/mL) to the growth media and to create pre-coated flasks/384w plates. Cells were cultured in T75 cm2 flasks and passaged as follows: Glioma stem cells generally grow slowly (~60hrs doubling time, excepting GCGR-E57 cells ~24hrs) and lag phase was exacerbated by sparse seeding. Cell confluence is generally ~80 -90% prior to passaging, whereby the culture media was aspirated, the cells washed (PBS) and Accutase solution (Sigma A6964, 1 mL) was added to detach the cells, which were then incubated at 37 °C for <5 minutes. Cells were resuspended in media and centrifuged for 3 minutes at 300 × g. Resuspended cells were typically split 1:5, 1:8 (GCGR-E57 cells) and 1:2, 1:4 for the remainder of cell lines, depending on requirements . Cells were passaged every 4-7 days to maintain health and growth and discarded after 3 months, whereupon a fresh batch of cells […]
Reverse Phase Protein Array (RPPA)
Culture media was aspirated and cells washed with wash media. Accutase solution (1mL) was used to detach the cells which were then incubated at 37 °C for 5 minutes. 10 mL of wash media was added, and the cells were pipetted into a 15 mL conical tube, after which they were centrifuged for 3 minutes at 300× g to form a pellet. Supernatant was aspirated, and cells resuspended in 5 mL of wash media. A 10 μL sample of the cell suspension was pipetted onto the reading surface of a DeNovix CellDrop automated cell counter and the reading was used to dilute the suspension in complete media to 250,000 cells/mL. 2 mL of this suspension was added to each well of 6-well plates to seed plates at 500,000 cells per well. 2 plates of each cell type (GCGR-E13, GCGR-E21, GCGR-E28, GCGR-E31, GCGR-E34, GCGR-E57 and GCGR-NS9FB_B) were seeded, one each for two nullomer dosage […]
timepoints (3 h and 24 h). The cells were incubated in the 6-well plates overnight, and dosing was carried out in the following morning. […]

The test system of another test is NCI-60 panel. The conditions noted are these: 60 cell lines from human cancers of nine organs; cited from earlier work. From the text:
(§9) Closely related to nullomer peptides, rarely observed amino acid stretches have also been studied by Capone et al., who assert that the minimal sufficient antigenic determinants of a protein could be encoded in just five rarely seen amino acids.[20] Complementing this, Patel et al. noted that these rare sequences could be used to enhance antigen-specific immune responses when dosed alongside adjuvant vaccines.[21] It was also noted by Koulouras et al. that human viruses rarely share human nullomers, facilitating host mimicry and immune evasion,[22] an interesting example of this being highligh ...

Test [1] concerns normal cell lines and cancer cell lines. The note with it: cited from earlier work.
From the text: as §9

With RRRRRCQAW-NH2 [Peptide 8], the IC50 is 100 µM with GCGR-E34; 100 µM in the test with GCGR-E13; 75 µM with GCGR-E21; 100 µM in the test on GCGR-NS9FB_B; 100 µM in the test with GCGR-E57; 238 µM with GCGR-E31. The IC50 in the test on GCGR-E28 amounted to 100 µM.

Take RRRRRQWW-NH2 [Peptide 11]: the IC50 in the test on GCGR-E34 was determined as 114 µM; in the test with GCGR-E13, 110 µM; in the test on GCGR-E21, 158 µM; in the test with GCGR-E57, 99.5 µM; in the test with GCGR-E31 it was 74.3 µM; with GCGR-E28 it was 72.6 µM.

As for RRRRRMQWW-NH2 [Peptide 12], the IC50 in the test with GCGR-E34 is > 100 µM; in the test with GCGR-E13, 117 µM; with GCGR-E21, 122 µM; in the test with GCGR-E57 it was > 100 µM; in the test with GCGR-E31, 59.7 µM; in the test with GCGR-E28, 100 µM.

Take RRRRRFQWW-NH2 [Peptide 13]: the IC50 is > 100 µM with GCGR-E34; 52 µM in the test with GCGR-E13; 81.3 µM in the test with GCGR-E21; 55.7 µM in the test with GCGR-E57; 101 µM in the test with GCGR-E31; 29.6 µM in the test with GCGR-E28.

As to RRRRRAQWW-NH2 [Peptide 6], the IC50 with GCGR-E13 came to 151 µM; with GCGR-E21, 279 µM; with GCGR-E28, 86 µM.

For the compound “RRRRR-NH2 [Peptide 15, reference compound]”, in the test on GCGR-E34, the IC50 was found to be 15.8 µM. This counts as double-digit micromolar.

Consider RRRRRCAWW-NH2 [Peptide 7], for which the IC50 in the test on GCGR-E34 came out at 6 µM; in the test on GCGR-E13 it was 10.6 µM; with GCGR-E21, 11.2 µM; with GCGR-NS9FB_B, 11.9 µM; in the test on GCGR-E57 it was 6.3 µM; in the test on GCGR-E31, 12.1 µM. The same compound displayed an IC50 in the test on GCGR-E28 of 9.7 µM. Besides, the “GSK-3 regulation in RPPA” value in the test with GSK-3 was “downregulation of GSK-3β”.

For the compound RRRRRCQWA-NH2 [Peptide 9], the IC50 in the test on GCGR-E34 was 15.8 µM; in the test with GCGR-E13, > 30 µM; in the test on GCGR-E21, > 30 µM; in the test on GCGR-NS9FB_B it was > 30 µM; in the test with GCGR-E57, > 30 µM; in the test with GCGR-E31 it was > 30 µM. Further, the IC50 in the test with GCGR-E28 was > 30 µM.

For the compound `N=C(N)NCCC[C@H](NC(=O)[C@H](CCCNC(=N)N)NC(=O)[C@H](CCCNC(=N)N)NC(=O)[C@@H](N)CCCNC(=N)N)C(=O)N[C@@H](CCCNC(=N)N)C(=O)N[C@H](CS)C(=O)N[C@H](CCC(N)=O)C(=O)N[C@H](Cc1c[nH]c2ccccc12)C(=O)N[C@H](Cc1c[nH]c2ccccc12)C(N)=O` [Peptide 3] (H-RRRRR[dC][dQ][dW][dW]-NH2), the IC50 in the test with GCGR-E34 was 5.3 µM; in the test on GCGR-E13, 6.9 µM; with GCGR-E21, 7.5 µM; with GCGR-NS9FB_B, 9.7 µM; in the test on GCGR-E57, 5.4 µM; in the test on GCGR-E31, 8.7 µM. For the same compound, the IC50 in the test on GCGR-E28 amounted to 8.4 µM. The “GSK-3 regulation in RPPA” value in the test on GSK-3 is listed as “downregulation of GSK-3”.

With RRRRRWWQC-NH2 [Peptide 4], the IC50 in the test with GCGR-E34 was found to be 8.6 µM; with GCGR-E13, 13.1 µM; with GCGR-E21, 12.8 µM; in the test on GCGR-NS9FB_B, 13.8 µM; with GCGR-E57 it was 9 µM; in the test on GCGR-E31, 11.8 µM. Moreover, in the test with GCGR-E28, the 50% inhibitory concentration (IC50) came to 10.9 µM.

As to RRRRRHQWW-NH2 [Peptide 14], the IC50 was > 100 µM in the test with GCGR-E34; 52 µM in the test on GCGR-E13; 132 µM in the test on GCGR-E21; 119 µM with GCGR-E57; 123 µM in the test on GCGR-E31; 58 µM in the test on GCGR-E28.

With RRRRRCQW-NH2 [Peptide 10], the half-inhibitory concentration (IC50) with GCGR-E34 is 154 µM; with GCGR-E13, > 100 µM; with GCGR-E21 it was > 100 µM; with GCGR-E57, 108 µM; in the test on GCGR-E31, > 100 µM; with GCGR-E28, 168 µM.

On to `N=C(N)NCCC[C@H](NC(=O)[C@H](CCCNC(=N)N)NC(=O)[C@H](CCCNC(=N)N)NC(=O)[C@@H](N)CCCNC(=N)N)C(=O)N[C@@H](CCCNC(=N)N)C(=O)N[C@H](Cc1c[nH]c2ccccc12)C(=O)N[C@H](Cc1c[nH]c2ccccc12)C(=O)N[C@H](CCC(N)=O)C(=O)N[C@H](CS)C(N)=O` [Peptide 5] (H-RRRRR[dW][dW][dQ][dC]-NH2), for which the IC50 in the test on GCGR-E34 was 17.6 µM; in the test with GCGR-E13, 13.6 µM; in the test with GCGR-E21 it was 16.3 µM; with GCGR-NS9FB_B, 15.9 µM; with GCGR-E57 it was 9.9 µM; in the test on GCGR-E31, 15.7 µM. This compound also yielded an IC50 with GCGR-E28 of 13.2 µM. Further, the “GSK-3 regulation in RPPA” value in the test with GSK-3 was “downregulation of GSK-3β”.

In the case of “NWMWC [pentamer peptide nullomer of Alileche et al]”, in the test on NCI-60 panel, the “lethal effect on NCI-60 panel” value is on record as “lethal to a high fraction of oncogenic cell lines”. Also, the mitochondrial impairment entry in [1] is “caused mitochondrial impairment in both normal cell lines and cancer cell lines”.
